# “And” between values parts separate entries of the source, which are not always exact repeats. Identical values can stand only once. Like-named read-outs stand apart in the source and are kept apart here.
# Experiments:
# Type in all cases: cell-based
# [1] = system: Hepatitis B virus; assay: Effects of CP-51 on HBV-induced DNA and RNA synthesis (Table 4); details: for mrna remaining at 10 µM / activity at 10 µM: Hepatitis B virus, HepG2, 216 h
# Experimental: (§1) HEP-G2 cells persistently infected with HBV were treated daily with fresh D-MEM containing 20% FBS and 10 μM compound. After 9 days incubation and treatment, the overlay medium was harvested to assay the quantity of Hepatitis B virus s antigen (HBsAg) and HBeAg by EIA (Abbott Laboratories). The overlay medium was diluted to levels of antigen in the linear range of the assay. Standard curves using dilutions of positive HBsAg and HBeAg controls were included in each assay. Virion DNA was assayed using the method set forth in Korba and Gerin, Antiviral Res., 19, 5,5-70 (1992), incorporated by reference herein. HBV DNA was extracted from the overlay medium containing virus particles and analyzed by a slot-blot hybridization technique using ^32 P-labelled 3.2 Kb Eco R1 HBV DNA fragment by comparisons to HBV standards present on nitrocellulose filters using an AMBIS beta scanner. EC90 values (90% effective concentration, i.e., drug concentration which induces a 90% decrease in the levels of HBV DNA replication intermediates in treated versus control cells) were calculated by linear regression analysis. The relative levels of HBsAg, HBeAg and virion DNA were calulated as a percentage of the average levels obtained from the untreated controls.
# Experiments were performed to determine the effects of CP-51 on HBV induced DNA and RNA syntheses. HEP-G2 cells persistently infected with HBV were treated daily with fresh D-MEM containing 20% FBS and 10 μM compound. After 9 days incubation and treatment the cells and overlay medium were harvested separately to assay the quantity of nucleic acids. Details of the methodology of the assays are given in Section B above. Extracellular virion DNA in untreated cells ranged from 50 to 150 pg/ml in the overlay medium. Intracellular HBV DNA replication intermediates (RI) in untreated cells ranged from 50 to 100 pg/μg cell DNA. Hybridization analysis results in about 1 pg intracellular HBV DNA/μg cellular DNA to 2-3 genomic copies per cell and 1.0 pg of extracellular HBV DNA/ml overlay medium to […] viral particles/ml. HBV RNA was analyzed by Northern blot hybridization analysis using a ^32 P-labeled 3.2 Kb gel-purified cloned genomic probe. Quantitive analysis of intracellular HBV DNA anc 14BV RNA was performed using an AMBIS beta scanner.
# [2] = system: Hepatitis B virus; assay: Effect on synthesis of antigen markers in persistently infected human HEP G2 cell cultures (Table 7); details: nine days; for activity at 10 µM: Hepatitis B virus, HepG2, 216 h
# Summary of the method: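 Persistently infected HepG2 cells treated with compound for nine days at 37° C. Culture medium then harvested: HBsAg and HBeAg quantified by EIA, virion DNA by hybridisation-based DNA measurement. Sensitivity cut-off 0.1 pg DNA/ml medium.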
# [3] = system: Hepatitis B virus; assay: Anti-hepatitis B virus activity in HEP-G2 cells persistently infected with HBV (Table 2); details: Hepatitis B virus, HepG2, 216 h
# Summary of the method: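 HBV-persistently infected HepG2 cells were dosed daily with 10 μM compound in 20% FBS medium for 9 days. Medium HBsAg and HBeAg were measured by EIA and virion DNA by slot-blot hybridisation, each relative to untreated controls. EC90 (90% drop in HBV DNA replication intermediates) came from linear regression.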
# [4] = system: Hepatitis B virus; assay: Effect of alkyl lipids on HBV replication in HBV persistently infected human HEP G2 cells (Table 6); details: 10 μM
# Summary of the method: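 Persistently HBV-infected HepG2 cells exposed to compound for nine days at 37 °C, intracellular HBV DNA analysed 24 h after day nine. Episomal 3.2-3.8 Kb genomes and replication intermediates normalized to integrated HBV DNA; virion DNA detection cut-off 0.1 pg DNA/ml culture medium.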
# [5] = Cytotoxicity in HBV persistently infected human HEP G2 cells, neutral red dye uptake (Table 5); details: human, hep-g2 cells, read-out: % of Control Neutral Red Dye Uptake
# Summary of the method: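 HBV-transfected HEP-G2 monolayers in RPMI-1640 were given compound at four serial concentrations in triplicate for nine days at 37 °C, with periodic medium replacement. Toxicity from 0.01% neutral red uptake (A510), as percent of nine untreated control wells on the same plate.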
# [6] = system: Hepatitis B virus; assay: CP-51 against HBV-induced antigen syntheses in HEP-G2 cells persistently infected with HBV (Table 3); details: for activity at 10 µM: Hepatitis B virus, HepG2, 216 h
# Experimental: as §1
# In contrast, CP-51 inhibited HBeAg and HBcAg syntheses by 76 and 68%, respectively.
# [7] = read-out: Relative Level of Virion DNA
smiles,measurement,setting,value
"Nc1ccn([C@H]2CC[C@@H](CO)O2)c(=O)n1 [2',3'-dideoxycytidine, 2', 3'-dideoxycytidine, reference compound]",effect on HBV-induced DNA and RNA syntheses,"[1]; 10 μM, in words",inhibited HBV-induced DNA synthesis but not RNA syntheses
same,mrna remaining at 10 µM,[1]; read-out: Relative Level of 2.1 Kb RNA,105%
same,activity at 10 µM,[1]; read-out: Relative Level of 3.2 Kb DNA,46%
same,mrna remaining at 10 µM,[1]; read-out: Relative Level of 3.6 Kb RNA,92%
same,activity at 10 µM,[1]; read-out: Relative Level of HBV RI,6%
same,mrna remaining at 10 µM,[1]; read-out: Relative Level of Total RNA,92%
same,activity at 10 µM,[1]; [7],2%
same,Relative Level of HBeAg,"[2]; 10 μM, 12960 min",115 % of Untreated Control and 98 % of Untreated Control
same,Relative Level of HBsAg,"[2]; 10 μM, 12960 min",112 % of Untreated Control and 102 % of Untreated Control
same,Relative Level of Virion DNA,"[2]; 10 μM, 12960 min",2 % of Untreated Control
same,activity at 10 µM,"[2]; read-out: Relative Level of HBeAg, 10 μM",101%
same,activity at 10 µM,"[2]; read-out: Relative Level of HBsAg, 10 μM",100%
same,activity at 10 µM,"[2]; read-out: Relative Level of Virion DNA, 10 μM",2%
same,activity at 10 µM,[3]; read-out: Relative Level of HBeAg,108%
same,activity at 10 µM,[3]; read-out: Relative Level of HBsAg,106%
same,activity at 10 µM,[3]; [7],2%
same,HBV Virion DNA,[4]; Day 0,67 pg/ml Culture Medium and 64 pg/ml Culture Medium and 58 pg/ml Culture Medium and 59 pg/ml Culture Medium
same,HBV Virion DNA,[4]; Day 3,49 pg/ml Culture Medium and 55 pg/ml Culture Medium and 50 pg/ml Culture Medium and 58 pg/ml Culture Medium
same,HBV Virion DNA,[4]; Day 6,20 pg/ml Culture Medium and 18 pg/ml Culture Medium and 17 pg/ml Culture Medium and 15 pg/ml Culture Medium
same,"Intracellular HBV DNA, RI (replication intermediates)",[4]; nine days,8 pg/μg Cell DNA and 7 pg/μg Cell DNA and 9 pg/μg Cell DNA
same,"viability at 216 h, 10 µM",[5]; Trial 1,101 ± 2%
same,"viability at 216 h, 30 µM",[5]; Trial 1,100 ± 1%
same,"viability at 216 h, 100 µM",[5]; Trial 1,97 ± 2%
same,"viability at 216 h, 300 µM",[5]; Trial 1,34 ± 4%
same,"viability at 216 h, 10 µM",[5]; Trial 2,101 ± 3%
same,"viability at 216 h, 30 µM",[5]; Trial 2,102 ± 2%
same,"viability at 216 h, 300 µM",[5]; Trial 2,40 ± 4%
same,"viability at 216 h, 1000 µM","[5]; Trial 2, 1000 μM",12 ± 5%
same,"viability at 216 h, 10 µM",[5]; Trial 3,100 ± 1%
same,"viability at 216 h, 30 µM",[5]; Trial 3,102 ± 1%
same,"viability at 216 h, 100 µM",[5]; Trial 3,99 ± 2%
same,"viability at 216 h, 300 µM",[5]; Trial 3,35 ± 2%
same,inhibitory activity against HBV-induced antigen syntheses,"[6]; 10 μM, in words",no inhibitory activity
same,activity at 10 µM,[6]; read-out: Relative Levels of HBcAg,102%
same,activity at 10 µM,[6]; read-out: Relative Levels of HBeAg,95%
same,activity at 10 µM,[6]; read-out: Relative Levels of HBsAg,96%

# Source: patent publication US6030960A, “Method of treating hepatitis virus infections” (priority 1998, dated 2000)
